Reference: BindingDB's records for patent US20230348467 (Zhejiang Hisun Pharmaceutical, 2023)

The molecules below were run against T1, Tyrosine-protein phosphatase non-receptor type 11 (Homo sapiens, UniProt Q06124) (assay: Determination of Allosteric Inhibition Activities of the Compounds of the Present Invention on SHP2).
T1 sequence (Q06124 whole entry): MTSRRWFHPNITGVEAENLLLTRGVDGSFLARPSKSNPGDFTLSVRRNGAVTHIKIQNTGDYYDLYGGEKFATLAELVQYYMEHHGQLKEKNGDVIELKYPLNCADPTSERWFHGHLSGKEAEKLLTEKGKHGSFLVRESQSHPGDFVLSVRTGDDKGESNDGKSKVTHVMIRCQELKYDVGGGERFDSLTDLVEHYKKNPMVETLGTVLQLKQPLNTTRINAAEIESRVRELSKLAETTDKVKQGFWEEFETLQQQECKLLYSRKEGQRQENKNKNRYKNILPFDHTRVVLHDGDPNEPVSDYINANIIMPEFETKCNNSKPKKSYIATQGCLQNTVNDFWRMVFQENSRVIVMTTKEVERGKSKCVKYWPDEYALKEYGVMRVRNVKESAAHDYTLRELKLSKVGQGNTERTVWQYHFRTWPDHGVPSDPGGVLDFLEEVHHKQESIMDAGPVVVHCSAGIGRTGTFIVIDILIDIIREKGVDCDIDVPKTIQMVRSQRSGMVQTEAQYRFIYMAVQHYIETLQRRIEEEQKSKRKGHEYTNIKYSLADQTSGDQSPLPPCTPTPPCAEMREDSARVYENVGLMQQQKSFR
Procedure: he experimental process was briefly described as follows: Test compounds were first dissolved in DMSO to prepare storage solutions. […] Then, the compounds to be tested were added in a concentration range of 0.00004-10 uM and incubated at 25 C. for 60 minutes. Then DiFMUP (Thermo, D6567) was added in the reaction and incubated at 25 C. for 30 minutes. After incubation, readings were taken using a microplate reader (BMG) with excitation and emission wavelengths of 340 nm and 450 nm, respectively.
NC1(c2ccccc2)CCN(c2nc(C(=O)O)c3c(-c4cccc(Cl)c4Cl)n[nH]c3n2)CC1 [US20230348467, Compound 10] was tested, and the IC50 was 7 nM.
With NC(=O)c1nc(N2C3CCC2CC(N)C3)nc2[nH]nc(-c3cccc(Cl)c3Cl)c12 (stereo not drawn) [US20230348467, Compound 17] the IC50 was 4 nM.
In the case of NC(=O)c1nc(N2CCC(N)(c3cccc(O)c3)CC2)nc2[nH]nc(-c3cccc(Cl)c3Cl)c12 [US20230348467, Compound 51], the IC50 is reported as 3 nM.
